In patent US20200368234A1, “PHOTORECEPTOR GENE MODULATOR PHOTOREGULIN 3 FOR TREATMENT OF RETINAL DISEASE” (University of Washington, priority 2017, published 2020):
Entries after “also recorded” stand apart in the source; their conditions may differ.

Tests used:
Rho^P23H mice = test: ERG visual function in Rho^P23H mice at P21; format: in vivo, mouse; conditions: 10 mg/kg PR3, vs littermate DMSO controls
Method: FIG. 4A compares scotopic b-wave amplitudes from P21 Rhodopsin^P23H mice treated with 10 mg/kg PR3 or DMSO vehicle (n=4-8, *p<0.05, t-test).
FIG. 4D compares photopic b-wave amplitudes from P21 Rhodopsin^P23H mice treated with 10 mg/kg PR3 or DMSO vehicle (n=4-8, *p<0.05, t-test).
To determine whether photoreceptor degeneration can be prevented, Rho^P23H mice were treated with PR3 or vehicle from P12-P14 until P21, during the period of rod photoreceptor death (FIG. 3A). At P21, visual function was assessed with ERGs and euthanized the mice for histological and qPCR analyses. At P21, control Rho^P23H mice had only 2-3 rows of photoreceptors remaining in their ONL (FIGS. 3B and 3C). Rods were sparse and there were few remaining cones (S Opsin+ and Cone Arrestin+ photoreceptors). Control Rho^P23H mice had minimal scotopic and photopic b-wave amplitudes by ERG analysis (FIGS. 4A, 4B, 4D, and 4E). […] The surviving cones in the PR3-treated retinas were more elongated and healthier than in the DMSO control retinas.
Photoregulin3 was identified by searching previous small molecule screens with SciFinder and PubChem for Nr2e3 interacting molecules. It was initially obtained from ChemDiv and then synthesized and purified in large quantities in the lab after initial screening. For in vivo experiments, mice were injected intraperitoneally with PR3 dissolved in DMSO at 10 mg/kg. […]

photoreceptors = test: Electron microscopy of photoreceptor morphology in wild type mice after PR3; format: in vivo; conditions: 10 mg/kg i.p. for 3 consecutive days from P11, EM at P14
Method: FIG. 2C compares electron microscope micrographs of retinal sections of wild type mice treated with 10 mg/kg PR3 or DMSO vehicle. Compared to controls, PR3 retinas have arrested inner and outer segment development and less compact heterochromatin in the ONL. Scale bars represent 10 μm (top) and 2 μm (bottom).
Electron microscopy (EM) was used to perform an ultrastructural analysis of photoreceptor morphology after PR3 treatment. Wild type mice were intraperitoneally injected with vehicle or PR3 for 3 consecutive days starting at P11. At P14, 24 h after the third injection, the mice were euthanized and processed their retinas for EM. Photoreceptor outer segments begin to form during the second and third postnatal week; genetic loss-of-function mutations in Nr2e3 lead to an impairment in rod outer segment formation.
(§1) Photoregulin3 was identified by searching previous small molecule screens with SciFinder and PubChem for Nr2e3 interacting molecules. It was initially obtained from ChemDiv and then synthesized and purified in large quantities in the lab after initial screening. For in vivo experiments, mice were injected intraperitoneally with PR3 dissolved in DMSO at 10 mg/kg.
Mice were euthanized by CO2, and then perfused with 0.9% saline followed by 4% glutaraldehyde in 0.1 M sodium cacodylate buffer. Eye cups were fixed in 4% glutaraldehyde in 0.1 M sodium cacodylate buffer, washed with 0.1 M sodium cacodylate buffer, and then post-fixed in 2% osmium tetroxide. After fixation, eye cups were washed with water, dehydrated through a graded series of ethanol, incubated in propylene oxide and then epon araidite, polymerized overnight at 60° C., and then sectioned at a thickness of 70 nm. Images were obtained using a JEOL JEM-1230 electron microscope.

Nr2e3-NCOR dimer complex = target: T1, Nr2e3-NCOR dimer complex (Homo sapiens, UniProt Q9Y5X4); conditions: PubChem Assay IDs 602229, 624378, 624394, 651849; cited from earlier work
T1 construct: expressed in transfected cells; host or cells: CHO-S cells
T1 sequence (Q9Y5X4 whole entry, one chain of several): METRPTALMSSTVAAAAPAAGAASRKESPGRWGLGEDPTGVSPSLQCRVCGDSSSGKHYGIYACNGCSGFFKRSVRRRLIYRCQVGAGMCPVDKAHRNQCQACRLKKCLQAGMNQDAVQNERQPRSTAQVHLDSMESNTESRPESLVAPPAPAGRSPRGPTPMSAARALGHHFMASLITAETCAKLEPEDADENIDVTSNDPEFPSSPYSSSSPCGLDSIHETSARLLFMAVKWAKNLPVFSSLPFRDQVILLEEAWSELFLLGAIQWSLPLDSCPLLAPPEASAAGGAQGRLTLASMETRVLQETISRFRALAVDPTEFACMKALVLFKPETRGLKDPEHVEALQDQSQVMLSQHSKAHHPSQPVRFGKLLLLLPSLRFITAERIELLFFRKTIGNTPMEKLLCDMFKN

rod photoreceptor genes = test: RNA sequencing of retinas of wild type mice after intraperitoneal PR3; format: in vivo; conditions: 10 mg/kg i.p. at P12, retinas collected 24 h later
Method: Nr2e3 signaling is important for rod photoreceptor cell fate, development and maturation, and maintenance of expression. To determine the effect of PR3 treatment on gene expression in postmitotic retinal cells, wild type mice were systemically treated (intraperitoneal injection) with PR3 or vehicle at P12. At P13, 24 h after the injection, the retinas were collected for global transcriptome analysis by RNA sequencing.
as §1
RNA from retinas was isolated using TRIzol (Invitrogen) and total RNA integrity was checking using an Agilent 4200 TapeStation and quantified using a Trinean DropSense96 spectrophotometer. RNA-seq libraries were prepared from total RNA using the TruSeq RNA Sample Prep kit (Illumina) and a Sciclone NGSx Workstation (PerkinElmer). Library size distributions were validated using an Agilent 4200 TapeStation. Additional Library quality control, blending of pooled indexed libraries, and cluster optimization were performed using Life Technologies' Invitrogen Qubit Fluorometer. RNA-seq libraries were pooled (4-plex) and clustered onto a flow cell lane. Sequencing was performed using an Illumina HiSeq 2500 in rapid mode employing a paired-end, 50 base read length (PE50) sequencing strategy.

COc1cc2nc(CN3CC=C(c4ccccc4)CC3)nc(O)c2cc1OC [PR3]
photopic b-wave amplitudes (ERG) (Rho^P23H mice): significantly elevated
scotopic b-wave amplitudes (ERG) (Rho^P23H mice): significantly elevated
heterochromatin of rod nuclei (EM) (photoreceptors): smaller patches of densely packed heterochromatin compared to DMSO retinas
photoreceptor apoptosis / cell death in ONL nuclei (EM) (photoreceptors): not due to an increase in cell death
photoreceptor outer segment development (EM) (photoreceptors): prevented outer segment development
modulation of Nr2e3 in luciferase-based assay (Nr2e3-NCOR dimer complex): identified as a chemical modulator of Nr2e3
cone gene expression (RNA sequencing) (rod photoreceptor genes): large and global increases in cone gene expression were not observed
toxicity to retinal cells (cell death and cell stress genes, RNA sequencing) (rod photoreceptor genes): not toxic to retinal cells
rod photoreceptor gene expression (RNA sequencing) (rod photoreceptor genes; 10 mg/kg): robust reduction in rod photoreceptor genes; also recorded: decrease in most rod photoreceptor-specific transcripts
